From the NIST ThermoML archive (doi:10.1021/je800586u)

Details: Crystal

C1CSCCS1 [1,4-dithiacyclohexane]
vapor or sublimation pressure [kPa]
Details	296.65 K	355.75 K	359.45 K	362.35 K	367.35 K	370.65 K	374.05 K	374.25 K	376.95 K
Rate of evaporation	–	1.067	1.333	1.893	2.653	3.246	3.826	3.906	4.626
Transpiration method	0.00918	–	–	–	–	–	–	–	–
